Reference: US7476673B2, “Disubstituted chalcone oximes as selective agonists of RARγ retinoid receptors” (Allergan, Inc., priority 2003, dated 2009)

How the values were obtained:
RARα [1] = biological target: T1, RARα (Homo sapiens, UniProt P10276); test: ligand binding assay, RARα; conditions: results expressed in Ki numbers, read-out: RAR Binding α
T1 sequence (P10276 1-462): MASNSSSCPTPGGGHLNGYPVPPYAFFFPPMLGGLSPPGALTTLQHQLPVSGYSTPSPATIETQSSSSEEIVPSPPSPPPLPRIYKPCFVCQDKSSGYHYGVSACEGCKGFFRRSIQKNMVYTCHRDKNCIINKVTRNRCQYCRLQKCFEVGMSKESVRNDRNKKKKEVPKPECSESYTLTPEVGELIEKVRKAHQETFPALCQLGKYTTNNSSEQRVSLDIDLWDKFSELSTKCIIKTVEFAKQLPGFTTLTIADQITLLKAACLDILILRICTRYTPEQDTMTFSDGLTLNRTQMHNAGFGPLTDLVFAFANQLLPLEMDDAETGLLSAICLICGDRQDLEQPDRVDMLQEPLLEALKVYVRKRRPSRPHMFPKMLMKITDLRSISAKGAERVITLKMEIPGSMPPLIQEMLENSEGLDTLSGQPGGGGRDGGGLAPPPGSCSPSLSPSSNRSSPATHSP
Source text: (§1) A holoreceptor transactivation assay and a ligand binding assay which measure the antagonist/agonist like activity of the compounds of the invention, or their ability to bind to the several retinoid receptor subtypes, respectively, are described in published PCT Application No. WO WO93/11755 (particularly on pages 30-33 and 37-41) published on Jun. 24, 1993, the specification of which is also incorporated herein by reference. A detailed experimental procedure for holoreceptor transactivations has been described by Heyman et al. Cell 68, 397-406, (1992); Allegretto et al. J. Biol. Chem. 268, 26625-26633, and Mangelsdorf et al. The Retinoids: Biology, Chemistry and Medicine, pp 319-349, Raven Press Ltd., New York, which are expressly incorporated herein by reference. The results obtained in this assay are expressed in EC50 numbers, as they are also in the chimeric receptor transactivation assay. The results of the ligand binding assay are expressed in Ki numbers. (See Cheng et al. Biochemical Pharmacology Vol. 22 pp 3099-3108, expressly incorporated herein by reference.)
(§2) Table 1 discloses the activity of certain exemplary compounds of the invention in the above-described chimeric RAR receptor transactivation and binding assays.

RARγ [2] = biological target: T2, RARγ (Homo sapiens, UniProt P13631); test: chimeric receptor transactivation assay, RARγ; assay type: cell-based; conditions: for EC50: chimeric receptor transactivation, read-out: RAR EC50 γ; for % Efficiency γ: percentage of maximum compared to standard TTNPB
T2 construct: % Efficiency γ; other: percentage of maximum compared to standard TTNPB
T2 sequence (P13631 185-454 limits assumed): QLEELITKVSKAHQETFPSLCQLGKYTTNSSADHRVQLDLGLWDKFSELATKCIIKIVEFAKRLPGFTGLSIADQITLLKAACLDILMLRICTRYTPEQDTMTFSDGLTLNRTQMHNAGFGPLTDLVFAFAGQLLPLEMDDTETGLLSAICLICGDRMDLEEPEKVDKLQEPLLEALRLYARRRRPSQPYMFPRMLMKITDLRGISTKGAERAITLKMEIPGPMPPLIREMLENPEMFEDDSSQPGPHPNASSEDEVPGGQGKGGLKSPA
Method: (§3) The compounds of the invention were tested in certain assays for activity as agonists of RAR and RXR retinoid receptors. Specifically, one such assay is a chimeric receptor transactivation assay which tests for agonist-like activity in the RARα, RARβ and RARγ receptor subtypes, and which is based on work published by Feigner P. L. and Holm M. (1989) Focus, 112 is described in detail in U.S. Pat. No. 5,455,265. The specification of U.S. Pat. No. 5,455,265 is hereby expressly incorporated by reference.
as §1
(§4) Efficacy in a transactivation assay is expressed as a percentage of the maximum potency attained by the compound compared to a standard which, in this case, is the compound 4-[(1E)-2-(5,6,7,8-tetrahydro-5,5,8,8-tetramethyl-2-naphthalenyl)-1-propenyl]-benzoic acid. (TTNPB) This standard compound is described in PCT Publication WO 2002077169 A2.
as §2

RARγ [3] = biological target: T3, RARγ (Homo sapiens, UniProt P13631); test: ligand binding assay, RARγ; conditions: results expressed in Ki numbers, read-out: RAR Binding γ
T3 sequence (P13631 1-454): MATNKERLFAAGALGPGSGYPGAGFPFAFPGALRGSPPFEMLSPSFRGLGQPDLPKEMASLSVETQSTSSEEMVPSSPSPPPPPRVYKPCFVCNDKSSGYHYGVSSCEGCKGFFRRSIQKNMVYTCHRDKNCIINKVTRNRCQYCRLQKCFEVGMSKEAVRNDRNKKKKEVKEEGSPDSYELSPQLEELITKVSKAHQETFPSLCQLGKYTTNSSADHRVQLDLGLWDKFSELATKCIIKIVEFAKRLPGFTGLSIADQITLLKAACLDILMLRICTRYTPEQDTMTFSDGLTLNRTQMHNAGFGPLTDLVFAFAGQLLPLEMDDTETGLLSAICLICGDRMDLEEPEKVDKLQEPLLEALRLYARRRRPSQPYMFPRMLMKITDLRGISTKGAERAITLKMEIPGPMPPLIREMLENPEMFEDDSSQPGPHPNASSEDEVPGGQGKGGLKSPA
Source text: as §1, §2

RARβ [4] = biological target: T4, RARβ (Homo sapiens, UniProt P10826); test: chimeric receptor transactivation assay, RARβ; assay type: cell-based; conditions: for EC50: chimeric receptor transactivation, read-out: RAR EC50 β; for % Efficiency β: percentage of maximum compared to standard TTNPB
T4 sequence (P10826 183-455 limits assumed): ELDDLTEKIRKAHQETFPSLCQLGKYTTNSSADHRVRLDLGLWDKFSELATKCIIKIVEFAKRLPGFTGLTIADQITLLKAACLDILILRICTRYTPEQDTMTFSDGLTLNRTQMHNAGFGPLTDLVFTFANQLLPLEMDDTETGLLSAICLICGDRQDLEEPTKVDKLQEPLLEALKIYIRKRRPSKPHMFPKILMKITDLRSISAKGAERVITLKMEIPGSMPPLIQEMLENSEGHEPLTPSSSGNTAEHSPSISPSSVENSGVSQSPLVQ
Method: as §3, §1, §4, §2

RARβ [5] = biological target: T5, RARβ (Homo sapiens, UniProt P10826); test: ligand binding assay, RARβ; conditions: results expressed in Ki numbers, read-out: RAR Binding β
T5 sequence (P10826 1-455): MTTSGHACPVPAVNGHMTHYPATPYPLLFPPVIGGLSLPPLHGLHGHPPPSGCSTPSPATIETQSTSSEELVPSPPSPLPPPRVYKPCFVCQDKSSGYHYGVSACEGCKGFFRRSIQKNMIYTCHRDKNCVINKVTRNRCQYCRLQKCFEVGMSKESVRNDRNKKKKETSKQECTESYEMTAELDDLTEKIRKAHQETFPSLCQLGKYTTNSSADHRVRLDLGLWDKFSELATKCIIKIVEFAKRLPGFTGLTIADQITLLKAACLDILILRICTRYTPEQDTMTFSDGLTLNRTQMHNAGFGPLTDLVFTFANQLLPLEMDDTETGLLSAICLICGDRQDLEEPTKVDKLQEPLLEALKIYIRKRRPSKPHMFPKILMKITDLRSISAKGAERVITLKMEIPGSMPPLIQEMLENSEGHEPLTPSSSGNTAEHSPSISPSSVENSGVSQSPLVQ
Source text: as §1, §2

RARα [6] = biological target: T6, RARα (Homo sapiens, UniProt P10276); test: chimeric receptor transactivation assay, RARα; assay type: cell-based; conditions: for EC50: chimeric receptor transactivation, read-out: RAR EC50 α; for % Efficiency α: percentage of maximum compared to standard TTNPB
T6 sequence (P10276 183-417 limits assumed): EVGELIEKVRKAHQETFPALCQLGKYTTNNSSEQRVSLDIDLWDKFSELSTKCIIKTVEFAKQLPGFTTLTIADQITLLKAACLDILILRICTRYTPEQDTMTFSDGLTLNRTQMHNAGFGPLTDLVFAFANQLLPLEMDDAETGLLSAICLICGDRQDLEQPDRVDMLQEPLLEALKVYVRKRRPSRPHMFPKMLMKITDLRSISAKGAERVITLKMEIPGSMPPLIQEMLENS
Method: as §3, §1, §4, §2

SMILES	Ki (RARα [1]) [nM]	EC50 (RARγ [2]) [nM]	% Efficiency γ (RARγ [2]) [%]	Ki (RARγ [3]) [nM]	EC50 (RARβ [4]) [nM]	% Efficiency β (RARβ [4]) [%]	Ki (RARβ [5]) [nM]	EC50 (RARα [6]) [nM]	% Efficiency α (RARα [6]) [%]
CC1(C)CCSc2ccc(C(/C=C/c3ccc(C(=O)O)cc3F)=N/O)cc21	10000	10	90	15	173	55	8000	> 1000	
CC1(C)CCC(C)(C)c2cc(C(C=Cc3ccc(C(=O)O)cc3)=NO)ccc21 [drawing 8]	2500	0.09	103	3	31	102	1300	441	81
CC1(C)CCSc2ccc(C(/C=C/c3ccc(C(=O)O)cc3F)=N\O)cc21	10000	21	120	19	503	45	10000	> 1000	
CC1=CCC(C)(C)c2cc(C(/C=C/c3ccc(C(=O)O)cc3F)=N\O)ccc21	18000	11	90	28	445	92	11000	> 1000	
Cc1cc2c(cc1C(C=Cc1ccc(C(=O)O)cc1)=NO)C(C)(C)CCC2(C)C [drawing 36]	8000	23	48	583	3440	41	17000	> 1000	
CC1(C)CCCc2ccc(C(/C=C/c3ccc(C(=O)O)cc3F)=N\O)cc21	2100	14	123	132	4060	95	7000	345	120
CC1(C)CC(C)(C)c2cc(C(C=Cc3ccc(C(=O)O)cc3)=NO)ccc2O1 [drawing 24]	> 10000	> 10000		> 10000	> 10000		> 10000	> 10000	
CCCCCCCN1C(=O)CC(C)(C)c2cc(C(/C=C/c3ccc(C(=O)O)cc3)=N\O)ccc21	17000	92	35	32	473	23	9000	> 1000	
